# Reference: US11415571B2, “Large scale organoid analysis” (Tempus Labs, Inc., priority 2019, dated 2022)
# Counter-ions that a name gives are not always drawn.
# Experiments:
# [1] = system: first lung cancer tumor organoid line; assay: high throughput tumor organoid drug screen, per-organoid viability histogram; details: 10,000 nM dose; for viability at 10 µM: Homo sapiens, read-out: mean viability for all organoids in the plot, caspase 3/7 readout
# Experimental: (§1) TOs were dissociated as described above and resuspended in a 30:70% mix of GFR Matrigel:growth media at a concentration of 100 cells/μl. The solution was added to 384-well assay plates (Corning) at 20 μl per well for a final concentration of 2,000 cells per well. Assay plates were covered with a Breathe-Easy sealing membrane (Sigma Aldrich) to prevent evaporation. TOs were grown for 72 hours before drug addition. Drugs were prepared in growth media with 2.5 μM Caspase-3/7 Green Apoptosis Assay Reagent (Essen Bioscience). Serial dilutions of each molecule were prepared in 384-well polystyrene plates (Nunc). Diluted drug was added to the assay plate using an Integra Viaflo pipette (Integra) mounted on an Integra Assist Plus Pipetting Robot (Integra). Assay plates were again covered with a Breathe-Easy sealing membrane and TOs were exposed to drugs for another 72 hours before imaging.
# (§2) Prior to imaging, TOs were incubated with 4 μM Hoechst 33342 (Fisher Scientific) and 300 nM TO-PRO-3 Iodide (642/661) (Invitrogen) for 1.5-2 hours. Assay plates were imaged using an ImageXpress Micro Confocal (Molecular Devices) at 10× magnification so that ˜100-200 TOs were imaged per well. Images were acquired as 4×15 μm Z-stacks and the 2D projections were analyzed to assess cell viability. Confocal images were analyzed using the MetaXpress software (Molecular Devices) custom module editor feature to design an analysis module that identified TOs by clusters of Hoechst 33342 staining, individual cells by Hoechst 33342 staining, and dead/dying cells by either TO-PRO-3 or Caspase-3/7 staining. The result of this analysis module is a spreadsheet detailing the number of live and dead cells for every individual organoid.
# (§3) The percentage of viable cells per organoid was calculated based on the image analysis described above. Organoids with fewer than three cells and larger than the top one percent by size were excluded from analysis. The mean viability for all organoids at a given drug concentration was used in dose-response curves to calculate AUC. AUC was calculated using the computeAUC function using settings for “actual” AUC of the R Package PharmacoGx (v1.17.1). Heatmaps of AUC values were generated using the Pheatmap package (v1.0.12) in R. Scatterplots of AUC values were generated using the ggplot2 package (v3.3.0) in R.
# (§4) In this example, data for each therapy is presented as a histogram. […] Viability was determined by the systems and methods disclosed above.
# (§5) Each tumor organoid line in these examples was cultured individually in wells of a tissue culture plate, as described above.
# In this example, tissue culture wells containing a first lung cancer tumor organoid line were each exposed to one of the therapies listed above.
# [2] = system: second lung cancer tumor organoid line; assay: as above; details: for viability at 10 µM: Homo sapiens, read-out: mean viability for all organoids in the plot
# Experimental: as §1, §2, §3, §4, §5
# In this example, tissue culture wells containing a second lung cancer tumor organoid line were each exposed to one of the therapies listed above.
# [3] = system: gastric cancer tumor organoid line; assay: cells; details: for organoids of the line that are resistant to the drug / organoids with 0% viability (susceptible to the drug) / organoids with 100% viability (resistant to the drug): caspase 3/7 readout, 10,000 nM dose; for viability at 10 µM: Homo sapiens, read-out: mean viability for all organoids in the plot
# Experimental: as §1, §2, §3, §4, §5
# In this example, tissue culture wells containing a gastric cancer tumor organoid line were each exposed to one of the therapies listed above.
# [4] = system: first endometrial cancer tumor organoid line; assay: high throughput tumor organoid drug screen, per-organoid viability histogram
# Experimental: as §1, §2, §3, §4, §5
# In this example, tissue culture wells containing a first endometrial cancer tumor organoid line were each exposed to one of the therapies listed above.
# [5] = system: colorectal cancer tumor organoid line; assay: as above; assay type: cell-based, human; details: caspase 3/7 readout, 10,000 nM dose; for viability at 10 µM: Homo sapiens, read-out: mean viability for all organoids in the plot
# Experimental: as §1, §2, §3, §4, §5
# In this example, tissue culture wells containing a colorectal cancer tumor organoid line were each exposed to one of the therapies listed above.
# [6] = system: colon cancer tumor organoid line; assay: as above; assay type: cell-based, human; details: caspase 3/7 readout, 10,000 nM dose; for viability at 10 µM: Homo sapiens, read-out: mean viability for all organoids in the plot
# Experimental: as §1, §2, §3, §4, §5
# In this example, tissue culture wells containing a colon cancer tumor organoid line were each exposed to one of the therapies listed above.
# [7] = system: second endometrial cancer tumor organoid line; assay: as above; details: for viability at 10 µM: Homo sapiens, read-out: mean viability for all organoids in the plot; for organoids with 0% viability (susceptible to the drug) / organoids with 100% viability (resistant to the drug) / organoids of the line that are resistant to the drug: caspase 3/7 readout, 10,000 nM dose
# Experimental: as §1, §2, §3, §4, §5
# In this example, tissue culture wells containing a second endometrial cancer tumor organoid line were each exposed to one of the therapies listed above.
# [8] = system: head and neck cancer tumor organoid line; assay: as above; details: for viability at 10 µM: Homo sapiens, read-out: mean viability for all organoids in the plot; for organoids of the line that are resistant to the drug / organoids with 0% viability (susceptible to the drug) / organoids with 100% viability (resistant to the drug): caspase 3/7 readout, 10,000 nM dose
# Experimental: as §1, §2, §3, §4, §5
# In this example, tissue culture wells containing a head and neck cancer tumor organoid line were each exposed to one of the therapies listed above.
# [9] = caspase 3/7 readout, 10,000 nM dose
structure (smiles),measurement,setting,value
C[C@@]1(CO)[C@H](O)CC[C@@]2(C)[C@H]1CC[C@H]1C[C@@H]3C[C@@]12CC[C@]3(O)CO [Aphidicolin],organoids of the line that are resistant to the drug,[1]; caspase 3/7 readout,presence of organoids
same,viability at 10 µM,[2],~30%
same,organoids of the line that are resistant to the drug,[2]; [9],presence of a small proportion
same,organoids with 0% viability (susceptible to the drug),[2]; [9],Approximately 50 organoids
same,organoids with 100% viability (resistant to the drug),[2]; [9],Approximately 15 organoids
CC(=O)O/N=C1/C(=C2/C(=O)Nc3cc(Br)ccc32)Nc2ccccc21 [BIO-acetoxime],organoids of the line that are resistant to the drug,[3],general absence
same,organoids with 0% viability (susceptible to the drug),[3],Approximately 150 organoids
same,organoids with 100% viability (resistant to the drug),[3],Approximately 20 organoids
CC(C)C[C@H](NC(=O)[C@H](Cc1ccccc1)NC(=O)c1cnccn1)B(O)O [Bortezomib],viability at 10 µM,[3],~15%
same,organoids of the line that are resistant to the drug,[3],general absence
same,organoids with 0% viability (susceptible to the drug),[3],Approximately 225 organoids
same,organoids with 100% viability (resistant to the drug),[3],Approximately 15 organoids
N.N.[Cl][Pt][Cl] [Cisplatin],organoids of the line that are resistant to the drug,[4]; [9],general absence
same,organoids with 0% viability (susceptible to the drug),[4]; [9],Approximately 60 organoids
same,organoids with 100% viability (resistant to the drug),[4]; [9],Approximately 5 organoids
CC(=O)O[C@@]12CO[C@@H]1C[C@H](O)[C@@]1(C)C(=O)[C@H](O)C3=C(C)[C@@H](OC(=O)[C@H](O)[C@@H](NC(=O)OC(C)(C)C)c4ccccc4)C[C@@](O)([C@@H](OC(=O)c4ccccc4)[C@H]21)C3(C)C [Docetaxel],viability at 10 µM,[5],~45%
same,organoids of the line that are resistant to the drug,[5],presence of organoids
same,organoids with 0% viability (susceptible to the drug),[5],Approximately 35 organoids
same,organoids with 100% viability (resistant to the drug),[5],Approximately 30 organoids
same,viability at 10 µM,[2],~30%
same,organoids of the line that are resistant to the drug,[2]; [9],presence of a small proportion
same,organoids with 0% viability (susceptible to the drug),[2]; [9],Approximately 50 organoids
same,organoids with 100% viability (resistant to the drug),[2]; [9],Approximately 20 organoids
same,viability at 10 µM,[6],~20%
same,organoids of the line that are resistant to the drug,[6],general absence
same,organoids with 0% viability (susceptible to the drug),[6],Approximately 70 organoids
same,organoids with 100% viability (resistant to the drug),[6],Approximately 15 organoids
O=c1[nH]cc(F)c(=O)[nH]1 [Fluorouracil],viability at 10 µM,[6],~25%
same,organoids of the line that are resistant to the drug,[6],general absence
same,organoids with 0% viability (susceptible to the drug),[6],Approximately 70 organoids
same,organoids with 100% viability (resistant to the drug),[6],Approximately 10 organoids
Nc1ccn([C@@H]2O[C@H](CO)[C@@H](O)C2(F)F)c(=O)n1 [Gemcitabine],viability at 10 µM,[1],~35%
same,organoids of the line that are resistant to the drug,[1]; caspase 3/7 readout,presence of a small proportion
same,organoids with 100% viability (resistant to the drug),[1]; caspase 3/7 readout,Approximately 15 organoids
same,viability at 10 µM,[2],~35%
same,organoids of the line that are resistant to the drug,[2]; [9],presence of a small proportion
same,organoids with 0% viability (susceptible to the drug),[2]; [9],Approximately 30 organoids
same,organoids with 100% viability (resistant to the drug),[2]; [9],Approximately 10 organoids
CCS(=O)(=O)Nc1ccc2c(c1)/C(=C(/Nc1ccc(CN3CCCCC3)cc1)c1ccccc1)C(=O)N2 [Hesperadin],viability at 10 µM,[7],~20%
same,organoids with 0% viability (susceptible to the drug),[7],Approximately 100 organoids
same,organoids with 100% viability (resistant to the drug),[7],Approximately 5 organoids
CO[C@@H](C)Cn1c(=O)n(C)c2cnc3ccc(-c4cncc(C(C)(C)O)c4)cc3c21 [LY3023414],viability at 10 µM,[8],~15%
same,organoids of the line that are resistant to the drug,[8],general absence
same,organoids with 0% viability (susceptible to the drug),[8],Approximately 80 organoids
same,organoids with 100% viability (resistant to the drug),[8],Approximately 5 organoids
NC(=O)c1cccc2cn(-c3ccc([C@@H]4CCCNC4)cc3)nc12 [Niraparib],viability at 10 µM,[1],~25%
same,organoids of the line that are resistant to the drug,[1]; caspase 3/7 readout,presence of a small proportion
same,organoids with 0% viability (susceptible to the drug),[1]; caspase 3/7 readout,Approximately 80 organoids
same,organoids with 100% viability (resistant to the drug),[1]; caspase 3/7 readout,Approximately 20 organoids
O=C1[O][Pt]2([NH][C@@H]3CCCC[C@H]3[NH]2)[O]C1=O [Oxaliplatin],mean viability for all organoids in the plot,[4]; [9],approximately 40%
same,organoids of the line that are resistant to the drug,[4]; [9],presence of organoids
same,organoids with 0% viability (susceptible to the drug),[4]; [9],Approximately 20 organoids
same,organoids with 100% viability (resistant to the drug),[4]; [9],Approximately 18 organoids
CC(=O)O[C@H]1C(=O)[C@@]2(C)[C@H]([C@H](OC(=O)c3ccccc3)[C@]3(O)C[C@H](OC(=O)[C@H](O)[C@@H](NC(=O)c4ccccc4)c4ccccc4)C(C)=C1C3(C)C)[C@]1(OC(C)=O)CO[C@@H]1C[C@@H]2O [Paclitaxel],viability at 10 µM,[8],~40%
same,organoids of the line that are resistant to the drug,[8],presence of a small proportion
same,organoids with 0% viability (susceptible to the drug),[8],Approximately 65 organoids
same,organoids with 100% viability (resistant to the drug),[8],Approximately 35 organoids
CCCCc1nc2cc(/C=C/C(=O)NO)ccc2n1CCN(CC)CC [Pracinostat],viability at 10 µM,[3],~20%
same,organoids of the line that are resistant to the drug,[3],general absence
same,organoids with 0% viability (susceptible to the drug),[3],Approximately 120 organoids
same,organoids with 100% viability (resistant to the drug),[3],Approximately 10 organoids
"COc1cccc(OCCCN)c1-c1cc(Nc2cnc(C#N)cn2)n[nH]1 [Prexasertib, Prexasertib HCl]",viability at 10 µM,[7],~40%
same,organoids of the line that are resistant to the drug,[7],presence of a small proportion
same,organoids with 0% viability (susceptible to the drug),[7],Approximately 80 organoids
same,organoids with 100% viability (resistant to the drug),[7],Approximately 35 organoids
CCc1c2c(nc3ccc(O)cc13)-c1cc3c(c(=O)n1C2)COC(=O)[C@]3(O)CC [SN-38],mean viability for all organoids in the plot,[1]; caspase 3/7 readout,approximately 45%
same,organoids of the line that are resistant to the drug,[1]; caspase 3/7 readout,presence of organoids
same,organoids with 0% viability (susceptible to the drug),[1]; caspase 3/7 readout,Approximately 20 organoids
same,organoids with 100% viability (resistant to the drug),[1]; caspase 3/7 readout,Approximately 20 organoids
same,mean viability for all organoids in the plot,[2]; [9],approximately 20%
same,organoids of the line that are resistant to the drug,[2]; [9],general absence
same,organoids with 0% viability (susceptible to the drug),[2]; [9],Approximately 100 organoids
same,organoids with 100% viability (resistant to the drug),[2]; [9],Approximately 5 organoids
"O=C(O)/C=C/c1ccc(-c2ccc(O)c(C34CC5CC(CC(C5)C3)C4)c2)cc1 [ST-1926, Adarotene]",viability at 10 µM,[7],~40%
same,organoids of the line that are resistant to the drug,[7],presence of a small proportion
same,organoids with 0% viability (susceptible to the drug),[7],Approximately 65 organoids
same,organoids with 100% viability (resistant to the drug),[7],Approximately 40 organoids
same,viability at 10 µM,"[4]; Homo sapiens, read-out: mean viability for all organoids in the plot",~30%
same,organoids of the line that are resistant to the drug,[4]; [9],general absence
same,organoids with 0% viability (susceptible to the drug),[4]; [9],Approximately 45 organoids
same,organoids with 100% viability (resistant to the drug),[4]; [9],Approximately 10 organoids
CC(=O)Nc1cccc(-n2c(=O)n(C3CC3)c(=O)c3c(Nc4ccc(I)cc4F)n(C)c(=O)c(C)c32)c1 [Trametinib],viability at 10 µM,[5],~25%
same,organoids with 0% viability (susceptible to the drug),[5],Approximately 50 organoids
same,organoids with 100% viability (resistant to the drug),[5],Approximately 10 organoids
